Key:
[1] = test system: Mycobacterium tuberculosis; assay: Antimycobacterial activity against multidrug resistance Mycobacterium tuberculosis 16883 clinical isolate assessed as inhibition of bacterial growth incubated for 7 days by MABA assay; assay type: functional; details: Mycobacterium tuberculosis, 16883, 168 h; time 7 day
[2] = test system: Mycobacterium tuberculosis; assay: Antimycobacterial activity against multidrug resistance Mycobacterium tuberculosis 16995 clinical isolate assessed as inhibition of bacterial growth incubated for 7 days by MABA assay; assay type: functional; details: Mycobacterium tuberculosis, 16995, 168 h; time 7 day

Row | Compound | MIC [1] [µg/mL] | MIC [2] [µg/mL]
1 | O=c1nc(N2CCC3(CC2)CN(Cc2ccc(F)cc2)C3)sc2c([N+](=O)[O-])cc(C(F)(F)F)cc12 | < 0.016 | < 0.016
2 | CC(c1ccc(OC(F)(F)F)cc1)N1CCC2(CC1)CN(c1nc(=O)c3cc(C(F)(F)F)cc([N+](=O)[O-])c3s1)C2 (centres undefined) | < 0.016 | < 0.016
3 | O=c1nc(N2CCC3(CC2)CN(Cc2ccc(OC(F)(F)F)cc2)C3)sc2c([N+](=O)[O-])cc(C(F)(F)F)cc12 | < 0.016 | < 0.016
4 | CC(c1ccc(F)cc1F)N1CC2(CCN(c3nc(=O)c4cc(C(F)(F)F)cc([N+](=O)[O-])c4s3)CC2)C1 (centres undefined) | < 0.016 | < 0.016
5 | O=c1nc(N2CCC3(CC2)CN(Cc2cccc(F)c2)C3)sc2c([N+](=O)[O-])cc(C(F)(F)F)cc12 | < 0.016 | < 0.016
6 | CO[C@H]1/C=C/O[C@@]2(C)Oc3c(C)c(O)c4c(O)c(c(/C=N/N5CCN(C)CC5)c(O)c4c3C2=O)NC(=O)/C(C)=C\C=C\[C@H](C)[C@H](O)[C@@H](C)[C@@H](O)[C@@H](C)[C@H](OC(C)=O)[C@@H]1C [RIFAMPIN] | > 10 | > 10
7 | CC(c1ccc(F)c(F)c1)N1CC2(CCN(c3nc(=O)c4cc(C(F)(F)F)cc([N+](=O)[O-])c4s3)CC2)C1 (centres undefined) | < 0.016 | < 0.016
8 | CC(c1cc(F)c(F)c(F)c1)N1CC2(CCN(c3nc(=O)c4cc(C(F)(F)F)cc([N+](=O)[O-])c4s3)CC2)C1 (centres undefined) | < 0.016 | < 0.016
9 | CC(c1ccc(Br)cc1)N1CC2(CCN(c3nc(=O)c4cc(C(F)(F)F)cc([N+](=O)[O-])c4s3)CC2)C1 (centres undefined) | < 0.016 | < 0.016
10 | CC(c1cc(F)cc(F)c1)N1CC2(CCN(c3nc(=O)c4cc(C(F)(F)F)cc([N+](=O)[O-])c4s3)CC2)C1 (centres undefined) | < 0.016 | < 0.016
11 | O=c1nc(N2CCC3(CC2)CN(Cc2cc(F)cc(F)c2)C3)sc2c([N+](=O)[O-])cc(C(F)(F)F)cc12 | < 0.016 | < 0.016
12 | O=c1nc(N2CCC3(CC2)CN(Cc2ccc(C(F)(F)F)cc2)C3)sc2c([N+](=O)[O-])cc(C(F)(F)F)cc12 | < 0.016 | < 0.016
13 | CC(c1ccc(Cl)c(F)c1)N1CC2(CCN(c3nc(=O)c4cc(C(F)(F)F)cc([N+](=O)[O-])c4s3)CC2)C1 (centres undefined) | < 0.016 | < 0.016
14 | CC(c1ccc(C(F)(F)F)cc1)N1CC2(CCN(c3nc(=O)c4cc(C(F)(F)F)cc([N+](=O)[O-])c4s3)CC2)C1 (centres undefined) | < 0.016 | < 0.016
15 | O=c1nc(N2CCN(CC3CCCCC3)CC2)sc2c([N+](=O)[O-])cc(C(F)(F)F)cc12 [MACOZINONE] | < 0.016 | < 0.016
16 | CC(c1ccc(F)c(Cl)c1)N1CC2(CCN(c3nc(=O)c4cc(C(F)(F)F)cc([N+](=O)[O-])c4s3)CC2)C1 (centres undefined) | < 0.016 | < 0.016
17 | NNC(=O)c1ccncc1 [ISONIAZID] | > 10 | > 10
18 | O=c1nc(N2CCC3(CC2)CN(Cc2ccc(Br)cc2)C3)sc2c([N+](=O)[O-])cc(C(F)(F)F)cc12 | < 0.016 | < 0.016
19 | CC(c1ccc(Cl)cc1)N1CC2(CCN(c3nc(=O)c4cc(C(F)(F)F)cc([N+](=O)[O-])c4s3)CC2)C1 (centres undefined) | < 0.016 | < 0.016
20 | CC(c1cccc(F)c1)N1CC2(CCN(c3nc(=O)c4cc(C(F)(F)F)cc([N+](=O)[O-])c4s3)CC2)C1 (centres undefined) | < 0.016 | < 0.016
21 | CC(c1ccc(OC(F)(F)F)cc1)N1CC2(CCN(c3nc(=O)c4cc(C(F)(F)F)cc([N+](=O)[O-])c4s3)CC2)C1 (centres undefined) | < 0.016 | < 0.016
22 | CC(c1ccc(F)cc1)N1CC2(CCN(c3nc(=O)c4cc(C(F)(F)F)cc([N+](=O)[O-])c4s3)CC2)C1 (centres undefined) | < 0.016 | < 0.016

Reference: ChEMBL document CHEMBL4680263, “Identification of benzothiazinones containing 2-benzyl-2,7-diazaspiro[3.5]nonane moieties as new antitubercular agents” (Eur J Med Chem, 2020)
